Each structure is given as a SMILES string.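 In this assay, cells in 96-well plates receive the compound at five concentrations for 48 hours. Endpoints are linearly interpolated between the surrounding concentrations. The concentration for 50% growth inhibition is given as GI50. TGI is the concentration that stops growth completely.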

What all share (assay): NCI tumour cell line growth inhibition, 48 h
In assay [1] the test system is UACC-257 melanoma.
The subject of assay [2] is SK-MEL-28 melanoma.
Assay [3] concerns IGROV1 ovarian.
Assay [4] has as its system K-562 leukemia.
Assay [5] relates to EKVX NSCLC.
For assay [6], the system named is SF-539 CNS.
For assay [7], the system named is MOLT-4 leukemia.
For assay [8], the system named is NCI-H522 lung.
For assay [9], the system named is CAKI-1 renal.
The test system of assay [10] is CCRF-CEM leukemia.

With `O=C(O)C1CC=CCC1C(=O)Nc1cccc(O)c1` (centres undefined), the TGI in assay [1], in [2], in assay [3], in [4], in assay [5] and in [6] was above 100 µM each time. Also, the TGI in assay [7], in [8] and in assay [9] was above 100 µM throughout.

`Cc1coc2c1C(=O)C(=O)c1ccccc1-2`: the TGI in assay [1] stood at 0.542 µM; in assay [2], 3.09 µM; in [3] it was 3.44 µM; in assay [4] it was 1.44 µM; in assay [10] it was 5.49 µM; in [6] it was 2.88 µM. Also, the TGI was found to be 6.03 µM in assay [7] and 3.63 µM in assay [9].

With `C[P+](C)(C)C`, the TGI in assay [1], in assay [2], in assay [3], in assay [4], in assay [10] and in assay [5] was above 100 µM each time. For the same molecule, the TGI in assay [6], in assay [7] and in assay [9] was above 100 µM throughout.

As to `CC1=CC(C)(c2c[nH]c3ccccc23)CC(C)(C)c2c1[nH]c1ccccc21` (centres undefined), the TGI turned out to be 41.2 µM in assay [1]; 30.1 µM in assay [2]; 36 µM in assay [3]; 53.9 µM in [4]; 31.7 µM in [10]; 39.8 µM in assay [5]. The TGI in [6] was above 100 µM; in assay [7], 27.6 µM.

`Cc1cccc(C)c1NC(=O)CCC/C(CC(=O)c1ccc(F)cc1)=N\NC(=O)C(=O)NN`: the TGI in assay [1], in [2], in assay [3], in assay [4], in assay [10] and in [5] was above 100 µM in each case. In addition, the TGI in [6], in assay [7] and in assay [9] was above 100 µM throughout.

Consider `CCCCC(C)/C=C/C(=O)C1=C(O)/C(=C/C(=O)O)OC1=O` (centres undefined), for which the TGI in [1], in assay [2], in assay [3], in assay [4], in assay [10] and in [5] was above 100 µM each time. For the same molecule, the TGI in assay [6] and in assay [7] was above 100 µM in each case.

Regarding `NCCCCCNc1noc(Cc2c[nH]c3cc(Br)ccc23)n1`, the GI50 in assay [1] is 11.9 µM; in assay [2] it was 3.93 µM; in assay [3], 5.09 µM; in assay [4] it was 0.469 µM; in assay [10], 1.81 µM; in assay [6], 2.15 µM. In addition, the GI50 was 2.44 µM in assay [7], 0.748 µM in [8] and 6.84 µM in [9]. Moreover, the TGI in assay [1] worked out at 25.5 µM; in [2], 19.3 µM; in assay [3] it was 27.4 µM; in [4], 14.7 µM; in assay [10] it was 8.2 µM; in assay [6] it was 5.84 µM. The TGI in assay [7] was 18.6 µM; in assay [8] it was 12.6 µM; in assay [9], above 100 µM.

Consider `C[C@]12CC[C@@H]3c4ccc(O)cc4CC[C@H]3[C@@H]1CC[C@@H]2NS(=O)(=O)c1ccc(Br)cc1`, for which the GI50 is 2.56 µM in [1]; 2.19 µM in assay [2]; 3.85 µM in [3]; 3.08 µM in [4]; 3.14 µM in assay [10]; 2.04 µM in [6]. The GI50 in assay [7] was 3.26 µM; in assay [9] it was 3.12 µM. The TGI in assay [1] was 8.12 µM; in assay [2], 5.09 µM; in assay [3], 12.1 µM; in assay [4], above 100 µM; in [10], above 100 µM; in assay [6], 3.92 µM. For the same molecule, the TGI is 28.7 µM in [7] and 10.2 µM in assay [9].

`CC(=O)Oc1ccc2c(c1)[C@@]1(C)CCCC(C)(C)[C@@H]1CC2`: the GI50 in [1] was 18.2 µM; in assay [2] it was 19.3 µM; in [3], 49.4 µM; in assay [4], 40 µM; in assay [10], 87.4 µM; in assay [5] it was 26 µM. The GI50 in assay [7] is 30.9 µM; in assay [8], 24.2 µM; in assay [9], 28 µM. The TGI in assay [1] is 43.6 µM; in assay [2] it was 49.8 µM; in assay [3] it was above 100 µM; in [4] it was above 100 µM; in [10], above 100 µM; in [5], 62.1 µM. Also, the TGI in [7] was above 100 µM; in [8], 69.2 µM; in assay [9] it was above 100 µM.

Take `NC(=S)N=Nc1c(O)[nH]c2c(Cl)cc(Cl)cc12`: the TGI in [1] is 86.2 µM; in assay [2] it was 29.6 µM; in [3] it was above 100 µM; in assay [4] it was above 100 µM; in [10], above 100 µM; in [5], above 100 µM. In addition, the TGI in [6] is 34.6 µM; in assay [7], 67.8 µM; in assay [9], above 100 µM.

In the case of `CCOC(=O)C1C=C2O[C@@H]3OC4(CCCCC4)O[C@@H]3C2C2C(=O)CCC(=O)[C@@]12C(=O)OC` (some centres undefined), the TGI in [1], in [2], in [3], in [4], in [10] and in assay [5] was above 100 µM each time. Besides, the TGI in assay [7], in assay [8] and in [9] was above 100 µM throughout.

As to `COc1cc(Cl)cc(-c2nn(-c3cccc(NC(=O)Nc4cccc(C(F)(F)F)c4)c3)cc2-c2ccncc2)c1`, the GI50 is 1.75 µM in assay [1]; 2.53 µM in assay [2]; 2.86 µM in assay [3]; 0.824 µM in assay [4]; 1.2 µM in assay [10]; 1.9 µM in assay [6]. The values for the GI50 in [7], in assay [8] and in assay [9] were 1.14 µM, 0.455 µM and 1.29 µM, respectively. For the same molecule, the TGI in assay [1] turned out to be 4.65 µM; in [2] it was 12.1 µM; in assay [3], 22.7 µM; in assay [4], 14.4 µM; in [10], 5.36 µM; in [6], 4.82 µM. Further, the TGI amounted to 4.35 µM in assay [7], 2.51 µM in assay [8] and 8.9 µM in assay [9].

Values taken from PubChem BioAssay (NCI).
